This assay has as its target P2X7 receptor (Homo sapiens (Human), UniProt Q99572). Description: P2X7 FLIPR assay (BzATP-stimulated calcium fluorescence, antagonist IC50). The format is cell-based. An outline of the steps: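 Cells expressing P2X7 receptor (human, rat or mouse), plated 24 hours earlier in low-serum medium, loaded with Fluo-4 NW dye (30 min 37° C, 30 min room temperature).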
P2X7 receptor, sequence (Q99572 whole entry): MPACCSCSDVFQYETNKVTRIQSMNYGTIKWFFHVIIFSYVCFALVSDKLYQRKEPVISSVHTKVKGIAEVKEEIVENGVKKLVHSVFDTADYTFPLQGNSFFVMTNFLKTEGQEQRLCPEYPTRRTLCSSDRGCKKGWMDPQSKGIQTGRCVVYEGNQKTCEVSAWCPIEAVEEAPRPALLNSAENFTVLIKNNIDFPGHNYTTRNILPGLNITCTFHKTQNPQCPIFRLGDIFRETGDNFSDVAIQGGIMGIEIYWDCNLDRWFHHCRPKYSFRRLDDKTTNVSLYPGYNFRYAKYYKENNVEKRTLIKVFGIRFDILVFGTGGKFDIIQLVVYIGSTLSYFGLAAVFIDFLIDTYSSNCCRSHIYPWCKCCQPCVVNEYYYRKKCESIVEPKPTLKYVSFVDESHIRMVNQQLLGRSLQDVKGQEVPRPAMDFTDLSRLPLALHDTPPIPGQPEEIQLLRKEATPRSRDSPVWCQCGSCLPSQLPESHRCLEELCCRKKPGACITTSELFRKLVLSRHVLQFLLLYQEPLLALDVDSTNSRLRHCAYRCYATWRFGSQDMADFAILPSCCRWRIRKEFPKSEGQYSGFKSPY
By IC50 is commonly meant the concentration needed to halve the response being measured. On to `O=C(NCC(CC1(C(F)(F)F)CC1)c1ccc(C(F)(F)F)nc1)c1cccc(Cl)c1Cl` (stereo not drawn) [2,3-dichloro-N-[3-[1-(trifluoromethyl)cyclopropyl]-2-[6-(tri] [2,3-dichloro-N-[3-[1-(trifluoromethyl)cyclopropyl]-2-[6-(trifluoromethyl)-3-pyridyl]propyl]benzamide], for which the IC50 is 19 nM. For the molecule `Cc1ncc(C(CNC(=O)c2ccccc2Cl)C2CCC(F)(F)CC2)cn1` (stereo not drawn) [2-chloro-N-[2-(4,4-difluorocyclohexyl)-2-(2-methylpyrimidin-5-yl)ethyl]benzamide], the IC50 is 90 nM. Regarding `O=C(NCC(c1ccc(Cl)cc1)C1CCOCC1)c1cccc(Cl)c1Cl` (stereo not drawn) [2,3-dichloro-N-[2-(4-chlorophenyl)-2-tetrahydropyran-4-yl-ethyl]benzamide], the half-maximal inhibitory concentration (IC50) turned out to be 1.6 nM. On to `O=C(NCC(c1ccc(C(F)(F)F)nc1)C1CC1)c1cccc(Cl)c1Cl` (stereo not drawn) [2,3-dichloro-N-(2-cyclopropyl-2-(6-(trifluoromethyl)pyridin-3-yl)ethyl)benzamide], for which the IC50 is 120 nM. To `Cc1ccc(C2(CNC(=O)c3cccc(Cl)c3Cl)CCC(F)(F)CC2)cn1` belongs 7.3 nM; to `O=C(NCC(CC1CC1)c1cnc(C(F)F)nc1)c1cccc(Cl)c1Cl` (single isomer, unassigned; (+)) [(+)2,3-dichloro-N-[3-cyclopropyl-2-[2-(difluoromethyl)pyrimi] [(+)2,3-dichloro-N-[3-cyclopropyl-2-[2-(difluoromethyl)pyrimidin-5-yl]propyl]benzamide], 23 nM. Turning to `Cc1ncc(C(CNC(=O)c2ccccc2Cl)CC2CC2)cn1` (stereo not drawn) [2-chloro-N-[3-cyclopropyl-2-(2-methylpyrimidin-5-yl)propyl]benzamide], the IC50 amounted to 1200 nM. For `COc1cccc(C(=O)NCC(CC2CC2)c2cnc(C(F)(F)F)nc2)c1C` (single isomer, unassigned; (+)) [(+)N-[3-cyclopropyl-2-[2-(trifluoromethyl)pyrimidin-5-yl]pro] [(+)N-[3-cyclopropyl-2-[2-(trifluoromethyl)pyrimidin-5-yl]propyl]-3-methoxy-2-methyl-benzamide], the IC50 stood at 9 nM. In the case of `CC(C)(O)c1ccc(C2(CNC(=O)c3ccccc3Cl)CCC(F)(F)CC2)cn1` [2-chloro-N-[[4,4-difluoro-1-[6-(1-hydroxy-1-methyl-ethyl)-3-pyridyl]cyclohexyl]methyl]benzamide], the IC50 is 380 nM. With `O=C(NCC(CC1(C(F)(F)F)CC1)c1ccc(C2CC2)nc1)c1ccccc1F` (stereo not drawn) [N-[2-(6-cyclopropyl-3-pyridyl)-3-[1-(trifluoromethyl)cyclopropyl]propyl]-2-fluoro-benzamide], the IC50 came out at 1700 nM.

Turning to `O=C(NCC(c1ccc(F)cc1)c1ccc(C(F)(F)F)nc1)c1cccc(F)c1Cl` (single isomer, unassigned; (+)) [(+)2-chloro-3-fluoro-N-[2-(4-fluorophenyl)-2-[6-(trifluorome] [(+)2-chloro-3-fluoro-N-[2-(4-fluorophenyl)-2-[6-(trifluoromethyl)-3-pyridyl]ethyl]benzamide], the IC50 is 4.6 nM. Regarding `O=C(NCC1(c2ccc(F)nc2)CCC(F)(F)CC1)c1ccccc1F` [N-[4,4-Difluoro-1-(6-fluoro-pyridin-3-yl)-cyclohexylmethyl]-] [N-[4,4-Difluoro-1-(6-fluoro-pyridin-3-yl)-cyclohexylmethyl]-2-fluoro-benzamide], the IC50 was 14 nM.

Turning to `CC(C)(O)c1ccc(C2(CNC(=O)c3cccc(Cl)c3Cl)CCC(F)(F)CC2)cn1` [2,3-dichloro-N-[[4,4-difluoro-1-[6-(1-hydroxy-1-methyl-ethyl)-3-pyridyl]cyclohexyl]methyl]benzamide], the IC50 was found to be 23 nM.

Regarding `O=C(NCC(c1cnc(C(F)(F)F)nc1)C1CCC(F)(F)CC1)c1cccc(F)c1Cl` (single isomer, unassigned; (-)) [(−)2-chloro-N-[2-(4,4-difluorocyclohexyl)-2-[2-(trifluoromet] [(−)2-chloro-N-[2-(4,4-difluorocyclohexyl)-2-[2-(trifluoromethyl)pyrimidin-5-yl]ethyl]-3-fluoro-benzamide], the half-inhibitory concentration (IC50) amounted to 44 nM. `Cc1ncc(C2(C(C)NC(=O)c3ccccc3Cl)CCC(F)(F)CC2)cn1` (stereo not drawn) [2-chloro-N-[1-[4,4-difluoro-1-(2-methylpyrimidin-5-yl)cyclohexyl]ethyl]benzamide]: the IC50 amounted to 1600 nM. For `Cc1ncc(C(CNC(=O)c2cccc(Cl)c2Cl)C2CCC(F)(F)CC2)cn1` (stereo not drawn) [2,3-dichloro-N-[2-(4,4-difluorocyclohexyl)-2-(2-methylpyrimidin-5-yl)ethyl]benzamide], the IC50 was 6.2 nM. With `Cc1ccccc1C(=O)NCC1(c2ccc(C(F)(F)F)nc2)CCC(F)(F)CC1` [N-((4,4-difluoro-1-(6-(trifluoromethyl)pyridin-3-yl)cyclohexyl)methyl)-2-methylbenzamide], the IC50 was 2.6 nM. For `Cc1ncc(C(CNC(=O)c2cccc(Cl)c2Cl)CC2(C(F)(F)F)CC2)cn1` (single isomer, unassigned; (-)) [(−)2,3-dichloro-N-[2-(2-methylpyrimidin-5-yl)-3-[1-(trifluor] [(−)2,3-dichloro-N-[2-(2-methylpyrimidin-5-yl)-3-[1-(trifluoromethyl)cyclopropyl]propyl]benzamide], the IC50 was found to be 64 nM. `Cc1c(C#N)cccc1C(=O)NCC1(c2ccc(C(F)(F)F)nc2)CCC(F)(F)CC1` [3-cyano-N-((4,4-difluoro-1-(6-(trifluoromethyl)pyridin-3-yl)cyclohexyl)methyl)-2-methylbenzamide]: the IC50 was determined as 45 nM. `O=C(NCC(c1cnc(C(F)(F)F)nc1)C1CCOCC1)c1cccc(F)c1Cl` (single isomer, unassigned; (+)) [(+)2-chloro-3-fluoro-N-[2-tetrahydropyran-4-yl-2-[2-(trifluo] [(+)2-chloro-3-fluoro-N-[2-tetrahydropyran-4-yl-2-[2-(trifluoromethyl)pyrimidin-5-yl]ethyl]benzamide]: the IC50 came out at 32 nM. `O=C(NCC(c1ccc(F)cc1)c1cnc(C(F)(F)F)nc1)c1cccc(Cl)c1Cl` (single isomer, unassigned; (+)) [(+)2,3-dichloro-N-[2-(4-fluorophenyl)-2-[2-(trifluoromethyl)] [(+)2,3-dichloro-N-[2-(4-fluorophenyl)-2-[2-(trifluoromethyl)pyrimidin-5-yl]ethyl]benzamide]: the IC50 was 1.1 nM. Take `CC(CNC(=O)c1cccc(F)c1Cl)(CC1CC1)c1cnc(C(F)(F)F)nc1` (single isomer, unassigned; (-)) [(−)2-chloro-N-[3-cyclopropyl-2-methyl-2-[2-(trifluoromethyl)] [(−)2-chloro-N-[3-cyclopropyl-2-methyl-2-[2-(trifluoromethyl)pyrimidin-5-yl]propyl]-3-fluoro-benzamide]: the IC50 came to 34 nM. For the molecule `Cc1ncc(C2(C(C)NC(=O)c3cccc(Cl)c3Cl)CCC(F)(F)CC2)cn1` (stereo not drawn) [2,3-dichloro-N-[1-[4,4-difluoro-1-(2-methylpyrimidin-5-yl)cyclohexyl]ethyl]benzamide], the IC50 came to 960 nM. Under `O=C(NCC(CC1CC1)c1ccc(C(F)(F)F)nc1)c1cccc(F)c1Cl` (stereo not drawn) [2(−)-chloro-N-[3-cyclopropyl-2-[6-(trifluoromethyl)-3-pyridy] [2(−)-chloro-N-[3-cyclopropyl-2-[6-(trifluoromethyl)-3-pyridyl]propyl]-3-fluoro-benzamide] stands 2.9 nM; under `O=C(NCC(CC1(F)CC1)c1ccc(C(F)(F)F)nc1)c1cccc(Cl)c1Cl` (stereo not drawn) [2,3-dichloro-N-[3-(1-fluorocyclopropyl)-2-[6-(trifluoromethyl)-3-pyridyl]propyl]benzamide], 3.7 nM. In the case of `O=C(NCC(CC1CC1)c1ccc(C(F)(F)F)nc1)c1cccc(Cl)c1Cl` (single isomer, unassigned; (-)) [(−)2,3-dichloro-N-[3-cyclopropyl-2-[6-(trifluoromethyl)-3-py] [(−)2,3-dichloro-N-[3-cyclopropyl-2-[6-(trifluoromethyl)-3-pyridyl]propyl]benzamide], the IC50 is 0.31 nM. For `O=C(NCC(CC1CC1)c1cnc(C(F)(F)F)nc1)c1cccc(Cl)c1Cl` (stereo not drawn) [2,3-dichloro-N-[3-cyclopropyl-2-[2-(trifluoromethyl)pyrimidi] [2,3-dichloro-N-[3-cyclopropyl-2-[2-(trifluoromethyl)pyrimidin-5-yl]propyl]benzamide], the IC50 amounted to 0.88 nM. As to `O=C(NCC(c1cnc(C(F)(F)F)nc1)C1CCC(F)(F)CC1)c1c(F)cccc1Cl` (single isomer, unassigned; (-)) [(−)2-chloro-N-[2-(4,4-difluorocyclohexyl)-2-[2-(trifluoromet] [(−)2-chloro-N-[2-(4,4-difluorocyclohexyl)-2-[2-(trifluoromethyl)pyrimidin-5-yl]ethyl]-6-fluoro-benzamide], the IC50 is 61 nM.

As to `O=C(NCC(c1ccc(F)cc1)c1cnc(C(F)(F)F)nc1)c1cccc(F)c1Cl` (single isomer, unassigned; (+)) [(+)2-chloro-3-fluoro-N-[2-(4-fluorophenyl)-2-[2-(trifluorome] [(+)2-chloro-3-fluoro-N-[2-(4-fluorophenyl)-2-[2-(trifluoromethyl)pyrimidin-5-yl]ethyl]benzamide], the IC50 worked out at 4.8 nM.

For `O=C(NCC(c1cnc(C(F)(F)F)nc1)C1CCC(F)(F)CC1)c1cccc(Cl)c1Cl` (single isomer, unassigned; (+)) [(+)2,3-dichloro-N-[2-(4,4-difluorocyclohexyl)-2-[2-(trifluor] [(+)2,3-dichloro-N-[2-(4,4-difluorocyclohexyl)-2-[2-(trifluoromethyl)pyrimidin-5-yl]ethyl]benzamide], the IC50 is 5.7 nM. As to `Cc1ccccc1C(=O)NCC1(c2ccccc2)CCN(C)CC1` [2-Methyl-N-(1-methyl-4-phenyl-piperidin-4-ylmethyl)-benzamide], the 50% inhibitory concentration (IC50) was determined as 64 nM.

On to `O=C(NCC1(c2ccc(Cl)cc2)CCOCC1)c1cccc(Cl)c1F` [3-Chloro-N-[4-(4-chloro-phenyl)-tetrahydro-pyran-4-ylmethyl]-2-fluoro-benzamide], for which the 50% inhibitory concentration (IC50) was 890 nM.

Take `Cc1ccccc1C(=O)NCC1(c2ccc(Cl)cc2)CCOCC1` [N-[4-(4-Chloro-phenyl)-tetrahydro-pyran-4-ylmethyl]-2-methyl-benzamide]: the IC50 is 2100 nM.

The record behind these values is patent US9102591B2, “Benzamides” (H. Lundbeck A/S, priority 2012, dated 2015).
